Measured values taken from US20090263470A1, “Vaccine Compositions Comprising Virosomes and a Saponin Adjuvant” (priority 2004, published 2009).
Where two headings read alike, the source gives them in different places.

Tests used:
[1] = QS21 injected parenterally as a free molecule; cited from earlier work
[2] = test system: red blood cells; conditions: OD at 540 nm
[3] = test system: red blood cells; test: Lytic activity of QS21 alone versus QS21 in the Inflexal V formulation against red blood cells, OD at 540 nm; assay type: cell-based; conditions: equivalent of 2.5 μg QS21 in 900 μl PBS pH 7.4 + 100 μl red blood cells, 30 minutes at RT
Method: 500 μl Inflexal V® vaccine, has been adjuvanted by the addition of 50 μg QS21. The resulting composition of this mixture is: +/−117 μg of Lecithin, 45 μg HA, 50 μg QS21 in 525 μl. The lytic activity of QS21 in this formulation has been compared to the lytic activity of QS21 alone.
Practically, a volume of the formulation “Inflexal V+QS21” containing the equivalent of 2.5 μg of QS21 is added to PBS pH 7.4 to reach a final volume of 900 μl. In parallel, 2.5 μg QS21 is taken and also diluted to 900 μl with PBS.
100 μl of red blood cells (10× diluted) are added to those 2 samples as described above. Samples are let for 30 minutes at RT. After centrifugation at 2000 rpm, the OD of the supernatant is red at 540 nm.

For QS21, the injection site observation [1] is given as “necrosis”, the OD ([2]; 1 μg QS21) is given as 0.217 and the OD ([2]; 1.5 μg QS21) is given as 0.631. It also gave an OD ([2]; 2.5 μg QS21) of 0.891 and an OD [3] of 1.63.
